Assay results reported in the OligoGym collection.
Where “and” joins values, the source holds several entries; their conditions need not be identical. Equal entries are not always repeated. These antisense oligonucleotides have a phosphorothioate backbone; sugars and methylation of C are not fully specified.

Assays:
Details in all cases: ASO
SELE = biological target: SELE
IL1R1 = biological target: IL1R1
ERBB2 = biological target: ERBB2
DUSP9 = biological target: DUSP9
Further: test concentration or dose not given here.

Row | Sequence | remaining target (mRNA or protein) (fraction of control) (SELE) | remaining target (mRNA or protein) (fraction of control) (IL1R1) | also measured
1 | GACTTCAAGAGTTCT | 0.82 |  | 
2 | AGTGCTACGGTGCGGGCGCG |  | 0.75 | 
3 | CCAATCATGACTTCAAGAGTT | 0.32 |  | 
4 | CAATCATGACTTCAAGAGTTC | 0.77 |  | 
5 | AGTCCTCCGTCTCCTGCAAC |  | 0.75 | 
6 | CTCTCCACCGAGGAGCAGGC |  | 0.75 | 
7 | CCCTTCCATAAATGAACAGC |  | 0.75 | 
8 | GTTGGGCATCGCTCCGCT |  |  | remaining target (mRNA or protein) (fraction of control) (ERBB2): 0.59
9 | TGATCCGTGATGCATGCTGT |  | 0.5 | 
10 | TGGTGACCTCAGGGATAAAG |  | 0.75 | 
11 | CGTTCTGCACTTACCGTTTTG | 0.52 |  | 
12 | CACAATCCTTAAGAACTCTTT | 0.31 |  | 
13 | GAAACAAATAAGTCTGAGTA |  | 0.75 | 
14 | TTCCCCAGATGCACCTGTTT | 0.02 |  | 
15 | ACAGGATCTCTCAGGTGGGT | 0.2 |  | 
16 | CCAAAGTGAGAGCTGAGAGA | 0.36 |  | 
17 | CCTGCCTCACTTGGTTGT |  |  | remaining target (mRNA or protein) (fraction of control) (ERBB2): 0.64
18 | GCAGCCGAGCCAGCCCGA |  |  | remaining target (mRNA or protein) (fraction of control) (ERBB2): 0.61
19 | CAGCCAAGAACAGCT | 0.5 |  | 
20 | GCACTTCTCACACCGCTG |  |  | remaining target (mRNA or protein) (fraction of control) (ERBB2): 0.51
21 | CAGGAAGGACAGGCTGGC |  |  | remaining target (mRNA or protein) (fraction of control) (ERBB2): 0.94
22 | CAGGGTCAGCGAGTAGGC |  |  | remaining target (mRNA or protein) (fraction of control) (ERBB2): 0.89
23 | GCACCACCTGGCAGCCCT |  |  | remaining target (mRNA or protein) (fraction of control) (ERBB2): 0.73

Row | Sequence | remaining target (mRNA or protein) (fraction of control) (SELE) | remaining target (mRNA or protein) (fraction of control) (IL1R1) | also measured
24 | TGTGTCCTGCAATCGGTGGC |  | 0.1 | 
25 | CTGGTAGAGGTGGCGGAG |  |  | remaining target (mRNA or protein) (fraction of control) (ERBB2): ≥ 1
26 | AGTAACACTTTCATATTCTT |  | 0.75 | 
27 | CCATCAGTCTCAGAGGGC |  |  | remaining target (mRNA or protein) (fraction of control) (ERBB2): 0.3
28 | AGGGCTGCGGCGGCTCCACT |  | 0.75 | 
29 | GGGTGGTATTGTTCAGCG |  |  | remaining target (mRNA or protein) (fraction of control) (ERBB2): 0.94
30 | CATAACCTGGCCTGCAACGC |  | 0.75 | 
31 | GAAATACTTTCCTGGGGAGAT | 0.81 |  | 
32 | GACCACGACCAGCAGAAT |  |  | remaining target (mRNA or protein) (fraction of control) (ERBB2): 0.76
33 | CTTTCCTGGGGAGATAAA | 0.96 |  | 
34 | TGAAGTCAGCCAAGAACAGCT | 0.08 |  | 
35 | CCTTTCCAGAGTGGCACC |  |  | remaining target (mRNA or protein) (fraction of control) (ERBB2): 0.75
36 | GGGTGGCACGGCAAACAG |  |  | remaining target (mRNA or protein) (fraction of control) (ERBB2): 0.81
37 | CATTCCTGCCGCTCCCTGGG |  | 0.75 | 
38 | GAAATACTTTCCTCCGTTTTG | ≥ 1 |  | 
39 | GCTGGTTGTTCTTGTGGA |  |  | remaining target (mRNA or protein) (fraction of control) (ERBB2): 0.73
40 | ACCTCTGCTGTTCTGATCCT | 0.17 |  | 
41 | CGTGCCAGTGTGGAGTGAGG |  | 0.23 | 
42 | ACCACACTGGTATTTCACAC | 0.67 |  | 
43 | TCAGGTTTCACACCGCTG |  |  | remaining target (mRNA or protein) (fraction of control) (ERBB2): 0.66
44 | CCTCCACCCACGCTTATCCA |  | 0.29 | 
45 | AGTCAAAGGAAGTTCACGGG |  | 0.5 | 
46 | CCCTTGGGCTGTGGATGACT |  | 0.75 | 

Row | Sequence | remaining target (mRNA or protein) (fraction of control) (SELE) | remaining target (mRNA or protein) (fraction of control) (IL1R1) | also measured
47 | CCCTTGTAGACTGTGCCA |  |  | remaining target (mRNA or protein) (fraction of control) (ERBB2): 0.56
48 | GATGTGAAGTCAGCCAA | 0.51 |  | 
49 | GCAAAGCGGGCCCAGGAGAA |  | 0.3 | 
50 | AATCATGACTTCAAGAGTTCT | 0.78 and 0.53 |  | 
51 | GGCAGTGTTGGAGGCTGG |  |  | remaining target (mRNA or protein) (fraction of control) (ERBB2): 0.57
52 | TGGGCGATCGGCTCCCTACA |  |  | remaining target (mRNA or protein) (fraction of control) (DUSP9): 0.91
53 | AGAAGAGGCAGGCTCCGAGC |  |  | remaining target (mRNA or protein) (fraction of control) (DUSP9): 0.53
54 | CATTCCATGAACTCTGCAAG |  | 0.75 | 
55 | CGAGCACCCCGCAGTTCTGG |  |  | remaining target (mRNA or protein) (fraction of control) (DUSP9): 0.94
56 | CACTGCAACCTCCGTCTCCC |  | 0.75 | 
57 | CCGGGCACTGCCCAGATAGA |  |  | remaining target (mRNA or protein) (fraction of control) (DUSP9): 0.62
58 | TCTTCAGAGGGTGCGTCTAC |  | 0.75 | 
59 | TCCTCTCTTCCAGAGCACCC | ≥ 1 |  | 
60 | GGCTTGAAATACTTTCCT | 0.84 |  | 
61 | CCAGACCCTCCATGGGCGAT |  |  | remaining target (mRNA or protein) (fraction of control) (DUSP9): ≥ 1
62 | TTGACACACTGGGTGGGC |  |  | remaining target (mRNA or protein) (fraction of control) (ERBB2): 0.61
63 | TACCCGAGAGGCACGTGAGC |  | 0.75 | 
64 | GAAGTCAGCCAAGAACAGCT | 0.5 |  | 
65 | CGAAGAAGTTTGGGAGGTTG |  |  | remaining target (mRNA or protein) (fraction of control) (DUSP9): 0.3
66 | CAGCCAAGAACAGCTGG | 0.62 |  | 
67 | TGGGCAGGGACACCCGTGGG |  |  | remaining target (mRNA or protein) (fraction of control) (DUSP9): 0.79
68 | CACTTAGCCGTGCGTTGGTG |  | 0.5 | 
69 | ACGTTTGGCCTCATGGAAGT | 0.35 |  | 
